The source of these data is PMC9973354 (mBio, 2022).

SMILES strings stand for the structures.

Common to all, as to assay type: cell-based, Pseudomonas aeruginosa
Assay [1] relates to PA14 ΔfpvA ΔfpvB pHERD20T-fpvA. Nature of the assay: Checkerboard assay TS and siderophores, FpvA expressed. The conditions noted are these: 10:90 + 2% arabinose. The text has this: We investigated this hypothesis by treating the ΔfpvA ΔfpvB mutant complemented with fpvA or fpvB with TS and pyoverdine-Fe^3+. If pyoverdine competes with TS for the same binding site in the transporter, a reduction in TS susceptibility would be expected, as competition would decrease entry of the antibiotic into the cell. TS susceptibility decreased >8-fold with increasing concentrations of pyoverdine-Fe^3+ when FpvA was expressed (see Fig. S2A in the supplemental material).
Supplementary file : FIG S2 Checkerboard assays of the PA14 ΔfpvA ΔfpvB strain complemented with fpvA and fpvB in trans with TS and siderophores. […] Checkerboards of the PA14 ΔfpvA ΔfpvB pHERD20T-fpvB strain with TS and enterobactin (G), ferrioxamine E (H), and arthrobactin (I). Results are averaged from three independent biological replicates. Cells in the assay were grown in 10:90 + 2% arabinose. Download FIG S2, EPS file, 2.2 MB.
Checkerboards (8 rows by 8 columns) were conducted as previously described in a 96-well plate (Nunc) ([13], [14]). TS at 75× the final concentration dissolved in DMSO was added in columns from bottom to top in increasing concentrations. Siderophores at 75× the final concentration dissolved in DSMO were added from in rows from left to right in increasing concentrations. Four columns were used for vehicle controls (DMSO) and sterile controls. […] Plates were sealed to prevent evaporation and incubated at 37°C overnight in a shaking incubator (200 rpm). The next day, the OD600 was determined with a plate reader (Thermo Scientific) and normalized to percent of growth of the vehicle control (DMSO) after subtracting the OD600 from blank media.

The test system of the next assay is PA14 ΔfpvB ΔfoxA mutants. Nature of the assay: Growth phenotypes of deletion mutants, ΔfpvB ΔfoxA. As to conditions: 10 μg/mL ferrioxamine B, 10:90. The text has this: PA14, ΔfpvA, ΔfpvB, and ΔfpvA ΔfpvB strains treated with TS (A) and DSX (B) in 10:90. Green indicates growth, and white indicates no growth. Growth is expressed as percent of control. The PA14 ΔfpvA ΔfpvB strain complemented with pHERD20T, fpvA, or fpvB treated with TS (C) and DSX (D) in 10:90. […] All experiments are averaged from three independent biological replicates. Blue indicates growth and white indicates no growth. (H) Summary of growth phenotypes of WT PA14 and combinations of single, double, triple, and quadruple deletion mutants in fpvA, fpvB, fiuA, and foxA. […] Green indicates growth, whereas no growth is indicated in white. […] Representative plates are shown.
If there were no transporters for a particular siderophore, the mutant would fail to grow due to iron restriction.

Assay [2] deals with PA14 ΔfpvA ΔfpvB ΔfiuA ΔfoxA pHERD20T-fpvB W347V. Nature of the assay: Growth of quadruple mutant expressing FpvB W347V. The conditions noted are these: FpvB W347V (expressed at 25% of WT), 10:90 + 2% arabinose. As to the method:
(§1) Site-directed mutagenesis was used to confirm the docking predictions and to define the molecular determinants for ligand uptake through FpvB (Fig. 4C). We generated 17 single amino acid substitutions in FpvB and expressed each of them in trans in the quadruple ΔfpvA ΔfpvB ΔfiuA ΔfoxA mutant. Their ability to complement growth of the mutant in the presence of ferrichrome and ferrioxamine B and to restore TS susceptibility was assessed. […] The mutant transporters were tagged with a C-terminal FLAG tag to evaluate expression levels. FLAG-tagged FpvB mutants had WT levels of expression except for Y216T and W347V, which were expressed at 140% and 25% of WT, respectively.
(§2) The ΔfpvA ΔfpvB ΔfiuA ΔfoxA mutant was complemented with WT fpvA, fpvB, fiuA, and foxA in trans as controls (Fig. 4E).
(§3) MIC assays were conducted as previously described ([13], [14]). Overnight cultures were grown in LB from a glycerol stock at 37°C with shaking (200 rpm). Subcultures in 10:90 (1:100 dilution) were cultured for 4 h. Cells were adjusted to an optical density at 600 nm (OD600) of 0.1/500 in 10:90. All compounds were serially diluted 2-fold in dimethyl sulfoxide (DMSO) or H2O at 75× the final concentration. […] The next day, the OD600 was determined with a plate reader (Thermo Scientific) and normalized to percent of growth of the vehicle control after subtracting the OD600 from blank media.

For assay [3], the system named is PA14 ΔfpvA ΔfpvB ΔfiuA ΔfoxA pHERD20T-fpvB D219A. Nature of the assay: Growth of quadruple mutant expressing FpvB D219A. The conditions noted are these: 10:90 + 2% arabinose. As to the method:
as §1, §2, §3

As for `CC(=O)N(O)CCCCCNC(=O)CCC(=O)N(O)CCCCCNC(=O)CCC(=O)N(O)CCCCCN` [ferrioxamine B], the “effect of siderophore on TS susceptibility” value in assay [1] is listed as “None of those siderophores reduced TS susceptibility”. Also, in the assay with PA14 ΔfpvB ΔfoxA mutants, the “growth in the presence of compound” value is “failed to grow”. For the same compound, the “growth in the presence of siderophore” value in assay [2] and in assay [3] was “prevented growth” each time.
